Series [1] has as its system adult T. palmi. As to conditions: cited from earlier work.
For series [2] the following is noted: cited from earlier work.
The test system of series [3] is Megalurothrips usitatus (flower Thrips). The note with it: for activity against flower Thrips in preliminary screening: adult M. usitatus, 24 hours of fumigation in 1-L flasks; for mortality: in vivo.
The subject of series [4] is T. castaneum (red flour beetle). The series is described as follows: Median lethal time (LT50) test, red flour beetle. Type of series: in vivo, Tribolium castaneum. The text has this: (§1) All treatments and controls were in triplicate.
(§2) Toxicity of Monoterpenes as Fumigants. […] Therefore, to determine how fast the monoterpenes act as fumigants, it was necessary to determine their LT50 values for the target organisms.

Series [5] has as its system B. cucuribitae (melon fly). In words: Median lethal time (LT50) test, melon fly. Type of series: in vivo, Bactrocera cucuribitae.
Excerpt: as §1, §2

The subject of series [6] is M. domestica (housefly). In words: Median lethal time (LT50) test, housefly. It is filed as in vivo, Musca domestica.
Excerpt: as §1, §2

Series [7] relates to H. picinus (Nitidulid beetle). The series is described as follows: Median lethal time (LT50) test, Nitidulid beetle. Type of series: in vivo, Haptoncus picinus.
Excerpt: as §1, §2

The subject of series [8] is A. japonicus (parasitic wasp). The series is described as follows: Median lethal time (LT50) test, parasitic wasp (natural enemy). As to conditions: non-target parasitic wasp. How it is done:
(§3) Insect Egg Parasitic Wasp (Natural Enemy). […] Both species were purchased from a commercial source. One- to two-day-old adults (after eclosion) were used for fumigation tests.
Median Lethal Time (LT50) and Median Knockdown Concentration (KC50) Tests. Five species of adult insects or natural enemies were tested for LT50 values including melon fly (B. cucuribitae), red flour beetle (T. castaneum), Nitidulidae beetle (H. picinus), parasitic wasp (A. japonicus) and housefly (M. domestica). For each treatment and control, 20 insects at the developmental stages described above were placed individually without food in a 1-L wide-mouth glass bottle (height 19.5 cm, bottom diameter 10.5 cm, mouth i.d. 5.5 cm) containing pieces of tissue paper. […] Five different concentrations of the test chemicals were placed on pieces of cellulose-based qualitative filter paper. Each of the filter papers was placed in a bottle to have 5 appropriate concentrations in serial dilutions. DDVP was the positive control, and no chemical treatments were the negative control. All treatments and controls were in triplicate. Mortality was observed periodically in a 10-30 minute interval for 2 days or until all insects died. The death was defined as no movement when the insects were touched.

Series [9] relates to T. chilonis (parasitic wasp). As to conditions: non-target parasitic wasp, mortality after 15 minutes of exposure.
Excerpt: as §3
(§4) Median Lethal Concentration Tests. […] The species tested included Thrips (M. usitatus), spider mite (T. cinnabarinus), melon fly (B. cucuribitae), cockroach (B. lateralis), housefly (M. domestica), mosquito (A. aegypti), parasitic wasp (T. chilonis) and fruit fly (Drosophila melanogaster). After being exposed to the test chemicals for one hour, adult Thrips, spider mites, and roaches were transferred to another flask. In addition to fresh water, adult Thrips, spider mites, and roaches were then respectively fed with cowpea, fresh blade of eggplant, and peanut oil via filter. […] Mortality of melon fly was observed after three hours of exposure.

The subject of series [10] is Musca domestica (housefly). In words: Median knockdown concentration (KC50) test, housefly. It is filed as in vivo. The note with it: for KC50 (fiducial limits): Musca domestica; for time within which the insects responded: houseflies.
Excerpt: as §1
(§5) Knockdown Activity of Monoterpenes.

The subject of series [11] is Megalurothrips usitatus (Bagrall) (thrips). The series is described as follows: Median lethal concentration fumigation test, thrips. The note with it: adult thrips, exposed one hour, mortality observed in 24 hours.
Excerpt: as §4

For series [12], the system named is Aedes aegypti (mosquito). The series is described as follows: Median knockdown concentration (KC50) test, mosquito. It is filed as in vivo.
Excerpt: as §1, §5

For series [13], the system named is Blatta lateralis (Walker) (cockroach).
Excerpt: as §4

The subject of series [14] is Musca domestica (Linnaeus) (housefly).
Excerpt: as §4

The test system of series [15] is Bactrocera cucuribitae (Coquillett) (melon fly).
Excerpt: as §4

The test system of series [16] is Aedes aegypti (Linnaeus) (mosquito).
Excerpt: as §4

The subject of series [17] is Tetranychus cinnabarinus (Boisduval) (spider mites).
Excerpt: as §4

In series [18] the test system is flower Thrips. In words: Field test in cowpea fields, thrips. Type of series: in vivo. How it is done: (§6) Field Tests. […] Therefore, it was determined whether this compound could control Thrips in the field. Linalool was in 20-, 10- and 5.0-fold dilutions with edible peanut oil. The positive control was spinetoram (Dow AgroSciences) in 3000-fold dilution.
(§7) The field experimental plots were 15 m^2 in size, in triplicate. A designated sprayer (Dia spray No. 3530, Japan Furlpla Co., Japan) was used to spray the solvent only negative control in this experiment. Grub density was calculated at every plot prior to application. During the experiments, the field was also infested with leafhoppers, so that the control efficacy of leafhoppers was also assessed. The number of adult Thrips and leafhoppers was assessed in the treatment and control areas at 1, 3, 5, 7, 14 and 21 days after application. The decline of the adult Thrips and leafhoppers was calculated to assess the control efficacy of linalool.
Field Applications. To assess the use of monoterpenes in the field, linalool was tested for control of flower Thrips in cowpea fields. […] At 1 and 3 days after treatment, control efficacy respectively reached 98% and 100% for the 10-fold dilution (Table 15). By comparison, the positive control, a 3000-fold dilution of spinetoram, reached 70% and 94% at 1 and 3 days after treatment, respectively (Table 17).

The test system of series [19] is leafhoppers, Cicadella viridi linne. In words: Field test, leafhoppers. The note with it: Leafhopper. Type of series: in vivo. How it is done:
as §6, §7
A 10-fold dilution of linalool was also the most efficacious application, compared to 5- and 20-fold dilutions, in controlling leafhoppers, Cicadella viridi linne (Hemiptera: Cicadellidae). At 7 and 14 days after treatment, the control efficacy of the 10-fold dilution of linalool reached 96% and 98%, respectively.

[20] abbreviates: cockroach second instar nymphs, exposed one hour.
Where [21] appears, read: adult housefly, exposed one hour, mortality in 24 hours.
[22] abbreviates: adult mosquito, exposed 30 minutes, mortality in 24 hours.

In brackets after ≈: the same amount, converted by molar mass. Structures can show the parent of a compound that is named as a salt. Where two headings read alike, the source gives them in different places. Marks after values point to notes of the source that are not given here.

As to `CC12CCC(CC1=O)C2(C)C` (racemic) [(±)-camphor, reference compound], in series [1], the “LC50, fumigation toxicity” value was 9.7 µg/mL (≈ 63.7 µM).

Take `C=C(C)[C@H]1CC=C(C)CC1` [(+)-Limonene]: the “Vp (Pa)/T (° C.)” value in series [2] (T 25 °C) is 263.97/25 Pa. Also, the “activity against flower Thrips in preliminary screening” value (“activity against flower Thrips” for short) in [3] is given as “not active”.

Consider `C=C(C)[C@@H]1CC=C(C)CC1` [(−)-Limonene], for which the “Vp (Pa)/T (° C.)” value in series [2] (T 25 °C) is listed as 206.65/25 Pa. Further, the “activity against flower Thrips” value in series [3] is given as “not active”.

Take `C=C[C@](C)(O)CCC=C(C)C` [(−)-Linalool]: the “Vp (Pa)/T (° C.)” value in [2] (T 23.5 °C) is 21.20/23.5 Pa.

Regarding `CC(C)=O` [Acetone], the “LT50 (fiducial limits)” value in series [4], in series [5], in [6] and in [7] was >48^a ^ hour each time. Also, the mortality entry in [3] is “No mortality”. Further, the “LT50 (fiducial limits) against A. japonicus” value in series [8] is on record as >48^a hour.

In the case of `Cc1ccc(C(C)C)cc1O` [Carvacrol], the “LC50 (fiducial limits) against T. chilonis” value in series [9] is 826 µg/mL (≈ 5500 µM). For the same compound, the “LC90 (fiducial limits) against T. chilonis” value in series [9] stood at 7.08 µg/mL (≈ 47.1 µM). Also, in series [2] (T 25 °C), the “Vp (Pa)/T (° C.)” value is 3.99/25 Pa. Moreover, the “LT50 (fiducial limits)” value in series [4] is 9.95 h; in [5], 2.49 h; in [6], 2.30 h; in [7], 1.94 h. Moreover, the “activity against flower Thrips” value in series [3] was “exhibit insecticidal activity”. For the same compound, the “KC50 (fiducial limits)” value was greater than 7600 µg/mL in series [10] (10 Minutes); greater than 243 µg/mL in series [10] (20 Minutes); greater than 243 µg/mL in [10] (30 Minutes); greater than 243 µg/mL in series [12] (10 Minutes); 6.0 µg/mL in [12] (20 Minutes); greater than 243 µg/mL in series [12] (30 Minutes). Besides, in series [10], the “time within which the insects responded” value is no more than 10 min. Also, the “LC50 (fiducial limits)” value in series [11] is greater than 19.2 µg/mL; in series [13] (setting [20]) it was 84.5 µg/mL (≈ 563 µM); in [14] (setting [21]), greater than 243 µg/mL; in series [15] (melon fly), greater than 243 µg/mL; in series [16] (setting [22]), 0.77 µg/mL (≈ 5.13 µM); in series [17] (spider mites, exposed one hour), 37.5 µg/mL (≈ 250 µM). Besides, the “LC90 (fiducial limits)” value is greater than 19.2 µg/mL in [11]; 118 µg/mL (≈ 786 µM) in [13] (setting [20]); greater than 243 µg/mL in series [14] (setting [21]); greater than 243 µg/mL in series [15] (melon fly); 3.92 µg/mL (≈ 26.1 µM) in series [16] (setting [22]); 510 µg/mL (≈ 3390 µM) in series [17] (spider mites, exposed one hour). For the same compound, the “LT50 (fiducial limits) against A. japonicus” value in series [8] was 3.32 (2.05-7220) hour.

With `ClC(Cl)Cl` [Chloroform], the “LT50 (fiducial limits)” value in series [4], in series [5], in series [6] and in series [7] was >48^a ^ hour each time. Moreover, the mortality result in [3] is on record as “No mortality”. For the same compound, the “LT50 (fiducial limits) against A. japonicus” value in series [8] is recorded as >48^a hour.

As for `C=CCc1ccc(OC)cc1` [Estragole], in series [9], the “LC50 (fiducial limits) against T. chilonis” value was determined as 1.64 µg/mL (≈ 11.1 µM). Moreover, the “LC90 (fiducial limits) against T. chilonis” value in series [9] amounted to 34.9 µg/mL (≈ 235 µM). In addition, the “LT50 (fiducial limits)” value in [4] is 8.23 h; in series [5], 1.69 h; in [6], 1.04 h; in series [7] it was 0.60 h. For the same compound, the “activity against flower Thrips” value in series [3] is on record as “exhibit insecticidal activity”. In addition, the “KC50 (fiducial limits)” value in [10] (20 Minutes) was greater than 502 µg/mL; in [10] (30 Minutes), greater than 243 µg/mL; in series [12] (10 Minutes), greater than 8.1 µg/mL; in [12] (20 Minutes), 2.32 µg/mL; in series [12] (30 Minutes), greater than 8.1 µg/mL. In addition, the “LC50 (fiducial limits)” value in series [11] amounted to 0.24 µg/mL (≈ 1.62 µM); in [11] (listed as estragole), 0.241 µg/mL (≈ 1.63 µM); in series [13] (in vivo) it was 24.1 µg/mL (≈ 163 µM); in series [14] (in vivo), 5.89 µg/mL (≈ 39.7 µM); in series [15] (in vivo) it was 483 µg/mL (≈ 3260 µM); in series [16] (in vivo), 0.25 µg/mL (≈ 1.69 µM). Further, the “LC50 (fiducial limits)” value in [17] (in vivo) turned out to be 3.28 µg/mL (≈ 22.1 µM). The “LC90 (fiducial limits)” value was 1.29 µg/mL (≈ 8.7 µM) in [11]; 15.3 µg/mL (≈ 103 µM) in series [13] (setting [20]); 15.3 µg/mL (≈ 103 µM) in [14] (setting [21]); 953 µg/mL (≈ 6430 µM) in [15] (melon fly); 0.91 µg/mL (≈ 6.14 µM) in [16] (setting [22]); 21.0 µg/mL (≈ 142 µM) in series [17] (spider mites, exposed one hour). Further, the “LT50 (fiducial limits) against A. japonicus” value in [8] was 1.19 (1.02-1.37) hour.

Turning to `C=CC(=C)CCC=C(C)C` [Myrcene], the “Vp (Pa)/T (° C.)” value in [2] (T 25 °C) was 278.64/25 Pa. Also, the “activity against flower Thrips” value in [3] was “not active”.

With `CCOC=O` [ethyl formate, reference compound], the LC50 entry in [3] (flower Thrips, positive fumigant control) was “greater than 9.2 μg/cm^3”.

Turning to `C/C=C/c1ccc(OC)cc1` [trans-Anethole], the “LT50 (fiducial limits)” value in series [4] worked out at 7.97 h; in [5], 2.28 h; in series [6], 2.01 h; in series [7], 1.07 h. In addition, the “activity against flower Thrips” value in series [3] is recorded as “exhibit insecticidal activity”. Also, the “KC50 (fiducial limits)” value in [10] (30 Minutes) is greater than 243 µg/mL; in [12] (10 Minutes), greater than 8.1 µg/mL; in series [12] (20 Minutes) it was 4.84 µg/mL; in series [12] (30 Minutes), 4.05 µg/mL. Moreover, in [10], the “time within which the insects responded” value was no more than 30 min. Also, the “LT50 (fiducial limits) against A. japonicus” value in [8] is on record as 0.933 (0.73-1.11) hour.

Regarding Spinetoram, the “Control Efficacy” value in series [18] (1 DAT) worked out at 70%; in series [18] (3 DAT), 94%; in series [18] (5 DAT) it was 37%; in series [18] (7 DAT), 33%; in series [18] (14 DAT), 62%; in series [18] (21 DAT), 0%. Also, the “Control Efficacy” value in [19] (1 DAT) is on record as 68%; in [19] (3 DAT), 87%; in series [19] (5 DAT), 36%; in series [19] (7 DAT), 49%; in series [19] (14 DAT), 66%; in series [19] (21 DAT), 25%.

(Values after patent US20240099298A1, “BIOINSECTICIDAL COMPOSITIONS CONTAINING MONOTERPENES AND METHODS OF USE THEREOF” (priority 2017, published 2024).)
